Results on 68 molecules are retold here after PubChem BioAssay AID179 (DTP/NCI, 2004).

The subject of the assay is CEM cells HIV-1 protection, formazan growth assay. As to the kind of experiment: NCI AIDS Antiviral Assay. The conditions noted are these: for IC50: measured here: growth of uninfected CEM cells. The essentials:
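Soluble formazan readout of cell growth; CEM cells ± HIV-1; 5 drug concs. ≥50% protection → retest; ≥50% again = moderately active; reproducible 100% = confirmed active.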

Values joined by “and” are separate entries in the source; they are usually repeats but may differ in a detail not shown here. Equal values may be shown once. Active and inactive are the calls of the source.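 Rule for the calls: active = compounds giving half or more protection of infected cells from virus-caused growth loss, again on retest; inactive = the rest.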 Where a SMILES comes first, the peptide text is derived from it.

Consider `O=C(O)COc1ccc(C(=O)/C(SS/C(C(=O)c2ccc(OCC(=O)O)c(Cl)c2Cl)=C2\C=C(c3ccc(Cl)cc3)SS2)=C2/C=C(c3ccc(Cl)cc3)SS2)c(Cl)c1Cl`, for which the result was inactive. On to `O=C1c2ccccc2C(=O)c2nc3ccc(Cl)cc3cc21`, for which the EC50 (usually the concentration that produces a half-maximal response) is over 6.17 µM and the IC50 (in general, the point on the concentration scale where inhibition reaches its midpoint) is over 6.17 µM.

`COC(=O)C(=O)C(C(=O)C(=O)Nc1ccccc1C(N)=O)c1nc2ccc([N+](=O)[O-])cc2[nH]c1=O` (configuration not stated): the EC50 is over 525 µM and the IC50 was 372 µM. Regarding `CONC(CC(=O)c1ccccc1)c1ccccc1` (configuration not stated), the EC50 is over 4.07 µM and the IC50 is over 4.07 µM. `COC(=O)C1Cc2c(n(C)c3ccccc23)C(CCC(=O)O)N1Cc1ccccc1` (configuration not stated): the result was inactive. As for `CCOC(=O)C1(c2ccccc2)CCC(=O)CC1`, the EC50 is over 380 µM and the IC50 was over 380 µM. Regarding `COC(=O)CC(=O)Nc1sccc1S(=O)(=O)c1ccccc1`, the EC50 was over 200 µM and the IC50 is 102 µM.

In the case of `O=C=NCCCCCCN1C(=O)N2C(c3ccccc3)N(CCCCCCN=C=O)C(=O)N2C1c1ccccc1` (configuration not stated), the outcome was inactive. As for `CC(/C=N/N(C)C1=NCCCN1)=N/N(C)C1=NCCCN1`, the EC50 is over 200 µM and the IC50 is over 200 µM. In the case of `NS(=O)(=O)c1ccc(-c2c3nc(c(-c4ccc(S(N)(=O)=O)cc4)c4ccc([nH]4)c(-c4ccc(S(N)(=O)=O)cc4)c4nc(c(-c5ccc(S(N)(=O)=O)cc5)c5ccc2[nH]5)C=C4)C=C3)cc1`, the EC50 was over 97.7 µM and the 50% inhibitory concentration (IC50) came to 46.8 µM. The like results for `CC1=C(C(=O)Nc2cccc(C(F)(F)F)c2)C(c2ccccc2F)C(C(=O)Nc2cccc(C(F)(F)F)c2)=C(C)N1` were, in that order, over 32.4 µM and 18.6 µM.

As for `CCOC(=O)C(=O)Nc1c(C)cccc1CC`, the EC50 was over 776 µM and the IC50 was over 776 µM.

For the molecule `C=C(C)C1CC2=C(O1)C(=O)c1cccc(O)c1C2=O` (configuration not stated), the EC50 was over 2 µM and the IC50 stood at 0.468 µM. The like results for `O=C1CCCC[C@H]1[C@H]1CCC[C@@H]([C@H]2CCCCC2=O)C1=O` were, in that order, over 871 µM and 398 µM. As for `Cc1cc(NS(=O)(=O)c2ccc(N=Nc3cc(N=Nc4ccc(S(=O)(=O)Nc5cc(C)nc(C)n5)cc4)c4c(NC(=O)C(Cl)Cl)cccc4c3OC(=O)C(Cl)Cl)cc2)nc(C)n1` (tested in a mixture with another compound), the result was inactive. For `Cc1cc(C(O)(c2cc(C)c(O)c(C(=O)O)c2)c2cc(C)c(O)c(C(=O)O)c2)cc(C(=O)O)c1O`, the EC50 is over 3.72 µM and the IC50 is over 3.72 µM. Turning to `NC(=O)Nc1ccc(S(=O)(=O)c2ccc(N)cc2)cc1`, the EC50 is over 200 µM and the half-inhibitory concentration (IC50) was over 200 µM. Consider `Cc1nc2cc(N)c(F)cc2[nH]1`, for which the EC50 is over 537 µM and the IC50 was over 537 µM. Regarding `CCC1(C(=O)OC)CCc2c(OC)ccc(OC)c2C1=O` (configuration not stated), the outcome was inactive. Consider `CC1(C)CC[C@]2(C(=O)O)CCC3(C)C(=CCC4[C@@]5(C)CC[C@H](OC6OCC(O)C(O)C6OC6OC(CO)C(O)C(O)C6O)C(C)(C)C5CC[C@]43C)C2C1` (some centres not stated), for which the result was inactive. With `COc1ccc2c(c1)C(=O)Cc1ccccc1CC2`, the EC50 is over 39.8 µM and the IC50 is over 39.8 µM. As to `C[C@]12CC[C@H](O)CC1=CC[C@@H]1C2CC[C@@]2(C)C1CC[C@@H]2c1ncc(-c2ccccc2)s1` (some centres not stated), the EC50 was over 11.5 µM and the IC50 is over 11.5 µM. As for `OCC1OC(n2cnc3cccnc32)CC1O` (configuration not stated), the EC50 is over 200 µM and the concentration for half-maximal inhibition (IC50) is over 200 µM. With `OC(c1ccco1)C(F)(F)c1nc2ccccc2o1` (configuration not stated), the EC50 was over 200 µM and the IC50 was over 200 µM. Turning to `O=C(c1ccc(Cl)cc1)N1CC1`, the EC50 was over 200 µM and the IC50 was 81.3 µM. The like results for `Cc1ccccc1NC(=O)O/N=C(\Cl)C(C)C` were, in that order, over 20 µM and 3.16 µM. `CC(C)(C)CP(=S)(CC(C)(C)C)CC(C)(C)C`: the EC50 was over 117 µM and the IC50 was over 117 µM. On to `CCOC(=O)C(NS(=O)(=O)c1ccccc1)(C(F)(F)F)P(=O)(OCC(C)C)OCC(C)C` (configuration not stated), for which the EC50 was over 200 µM and the IC50 was 64.6 µM. On to `CC(=O)c1c(-c2ccc(O)cc2)oc2cc(O)ccc12`, for which the EC50 was over 347 µM and the IC50 was determined as 63.1 µM. For `COc1cc(OCc2ccc3nc(-c4ccccc4)c(Cl)nc3c2)cc(OC)c1OC`, in that order: over 200 µM and over 200 µM. Regarding `Clc1ccc(-c2cc(-c3cc(-c4ccc(Cl)cc4)n[nH]3)[nH]n2)cc1`, the EC50 was over 200 µM and the IC50 was over 200 µM. `Nn1c(CNc2ccc(-c3nnc(Nc4ccc(Cl)cc4)n3N)cc2)nnc1Nc1ccc(Cl)cc1`: the EC50 is over 200 µM and the IC50 stood at 67.6 µM. For `NC1=NC2(CS1)CSC(N)=N2`, in that order: over 263 µM and over 263 µM. With `CC1(c2ccc(F)cc2)C(C#N)C(=O)NC(=O)C1C#N` (configuration not stated), the EC50 is over 912 µM and the IC50 turned out to be 170 µM. The like results for `CC(=O)OCC1=C(CCC#N)N2C(=O)C(NC(=O)Cc3cccs3)C2S(=O)C1` (configuration not stated) were, in that order, over 200 µM and 95.5 µM. The like results for `NC1=NC(=O)[C@H](Cc2c[nH]c3ccccc23)N1C(=O)OCc1ccccc1` were, in that order, over 200 µM and 120 µM. As to `COc1cc(-c2oc3c(OC)c(OC)cc(O)c3c(=O)c2OC)ccc1O`, the EC50 is over 100 µM; the IC50 was 12.6 µM and 3.55 µM.

On to `c1ccc(C2CCCNCC2)cc1` (configuration not stated), for which the outcome was inactive. In the case of `CCCc1cc(=O)[nH]c(SCC(=O)O)n1`, the EC50 was over 200 µM and the IC50 was over 200 µM. For the molecule `CCCCC1(N=[N+]=[N-])C(=O)C2C=CC=C3c4ccccc4N(C1=O)C32` (configuration not stated), the outcome was inactive. Same read-out and setting: to `COC1CCC(=O)N1CC/C=C(/Br)[Si](C)(C)C` (configuration not stated) belongs “inactive”. Turning to `CCOC(=O)c1cccn1S(=O)(=O)c1cc(Cl)ccc1NC(=O)CC`, the EC50 is 6.17 µM and the half-maximal inhibitory concentration (IC50) was 195 µM. For the molecule `CC12CCCCC1(C)C2Sc1ccccc1` (configuration not stated), the result was inactive.

Take `COc1cccc(CN2CC(C)N(N=Cc3c4c(O)c5c(O)c(C)c6c(c5c3O)C(=O)C(C)(O/C=C/C(OC)C(C)C(OC(C)=O)C(C)C(O)C(C)C(O)C(C)/C=C/C=C(\C)C(=O)N4)O6)C(C)C2)c1` (configuration not stated): the EC50 is over 200 µM and the concentration for half-maximal inhibition (IC50) came to 7.24 µM. In the case of `Cc1cc2c(=O)cc(-c3ccc(Cl)cc3Cl)oc2c(C(=O)O)c1C`, the result was inactive. With `CC(C)(C)OC(=O)NC(C)(C)C(=O)NCCC(=O)O`, the EC50 was over 200 µM and the IC50 was over 200 µM. As to `Cc1cc(S(=O)(=O)Nc2n[nH]c(Nc3ccc4ccccc4c3)n2)c(S)cc1Cl`, the EC50 was over 200 µM and the IC50 worked out at 49 µM. For `COC(=O)c1nc(N)[nH]c(=O)c1-c1ccc(Cl)cc1`, in that order: 251 µM and 891 µM.

In the case of `CC(=O)O[C@H]1CC[C@@]2(C)C(=CC[C@@H]3C2CC[C@@]2(C)C3CC[C@@H]2c2ncc(-c3ccccc3)s2)C1` (some centres not stated), the EC50 is over 52.5 µM and the IC50 is over 52.5 µM. In the case of `C/C(C=C(C#N)C#N)=C\c1ccc([N+](=O)[O-])cc1`, the EC50 is over 11.5 µM and the IC50 is over 11.5 µM. With `C#CCSc1nnnn1-c1ccc(Br)c(C)c1`, the EC50 was over 200 µM.

In the case of `CSc1ncc2c(C#N)c3[nH]c4ccccc4n3c(=O)c2n1`, the EC50 was over 200 µM and the IC50 stood at 6.46 µM. The like results for `COC(=O)[C@H](Cc1ccc(OC(C)(C)C)cc1)N[C@H](C)C(=O)N[C@@H](Cc1ccccc1)C(=O)OCc1ccccc1` were, in that order, over 200 µM and 27.5 µM.

Take `COC(=O)CCC1(C)C2CCC1/C(=N/O)C2` (configuration not stated): the EC50 is over 200 µM and the IC50 is over 200 µM.

Take `C[C@H]1C(=O)c2c(cc(O)c(C3OC(CO)C(O)C(O)C3O)c2O)OC1c1ccc(O)c(O)c1` (some centres not stated): the result was inactive. Consider `C[CH2][Ge]([CH2]C)([CH2]C)[O]C(=O)C([O][Ge]([CH2]C)([CH2]C)[CH2]C)c1ccccc1` (configuration not stated), for which the EC50 was over 200 µM and the IC50 came out at 20.9 µM. As to `CCn1cc(/C=C/C(C)c2cn(CC)c(=O)[nH]c2=O)c(=O)[nH]c1=O` (configuration not stated), the outcome was inactive. As for `O=C(C[P+](c1ccccc1)(c1ccccc1)c1ccccc1)c1ccc(Br)cc1`, the EC50 was over 200 µM and the IC50 was found to be 14.8 µM. Consider `COc1cccc(C2CC(C)=Nc3c(ccc4c3C(=O)c3ccccc3C4=O)N2)c1O` (configuration not stated), for which the EC50 was over 9.12 µM and the 50% inhibitory concentration (IC50) is over 9.12 µM. `CC(C)[C@@H]1CC[C@]2(COC(=O)CC(C)(C)CC(=O)O)CC[C@]3(C)[C@H](CC[C@@H]4[C@@]5(C)CC[C@H](OC(=O)CC(C)(C)CC(=O)O)C(C)(C)[C@@H]5CC[C@]43C)[C@@H]12`: the EC50 was over 200 µM and the IC50 turned out to be 9.77 µM. The like results for `S=C(Nc1ccc2c3c(cccc13)CC2)Nc1ccc2c3c(cccc13)CC2` were, in that order, over 200 µM and 42.7 µM.

Take `N#C/C(=C\n1c(=S)[nH]c2ccc([N+](=O)[O-])cc21)c1cccc(Cl)c1`: the EC50 is over 200 µM and the IC50 came to 120 µM. For `Brc1ccc(N=NN2CCCCC2)cc1`, in that order: over 200 µM and 18.6 µM. For `CC(C)[C@@H]1OC(=O)[C@@H](C)NC(=O)[C@@H]2CCCN2C1=O` (HELM PEPTIDE1{[CC(C)[C@H](O[*:1])C(=O)[*:2]].P.[dA]}$PEPTIDE1,PEPTIDE1,1:R1-3:R2$$$V2.0), in that order: over 200 µM and over 200 µM. The like results for `CC1=C(c2ccccc2)C(c2ccccc2)=C(c2ccccc2)C2(c3ccccc3)C(=O)C(C)CN12` (configuration not stated) were, in that order, over 5.75 µM and over 5.75 µM. Consider `N#Cc1c(Nc2nc3ccccc3s2)c2ccccc2n2c1nc1ccccc12`, for which the EC50 was over 200 µM and the IC50 was over 200 µM.

For `FC(F)(Sc1nc2ccccc2[nH]1)c1nc2ccccc2o1`, the EC50 was over 200 µM and the IC50 is over 200 µM.

Regarding `CCOC(=O)C(NC(=O)Nc1ccccc1)(Nc1cccc(Cl)c1)C(F)(F)F` (configuration not stated), the EC50 was over 200 µM and the IC50 came out at 195 µM.
